Measured values as given in patent publication US6676932B2, “Ultraviolet absorbent, photostabilizer, ultraviolet ray-absorbing composition, photostabilized composition and external preparation for skin” (Shiseido Co., Ltd., priority 2001, dated 2004).

Assays:
Type in all cases: physicochemical
[1] = Dye stabilization effect under daylight exposure (Test Examples 6-91); parameters: key to Δ E: color difference ΔE in Lab vs. color before daylight exposure; key to Appearance (visual determination): ◯: no change; Δ: almost no change; x: change; settings: photostabilizer 0.05 wt %, daylight exposure (80 MJ)
Experimental: For observation of the change of the appearance of each test sample (determination based on visual observation) and the measurement of color difference (ΔE) before and after daylight exposure (80 MJ), the test sample was prepared.
(§1) With a spectrophotometer, the color was measured on the Lab coordinate system, to calculate the color difference on the basis of the color before daylight exposure. More specifically, the color difference (ΔE) was calculated on the basis of the measured values (L1, a1, b1) before daylight exposure.

[2] = Stabilization effect on perfume under daylight exposure (Test Examples 92 to 181); parameters: key: ◯: no change; Δ: almost no change; x: change; settings: daylight exposure (80 MJ)
Experimental: Each test sample was prepared for observation of the change of the odor of the test sample (determined by perfume coordinator) before and after daylight exposure (80 MJ).

[3] = Drug stabilization effect under daylight exposure (Test Examples 182 to 211); parameters: key to Appearance (visual determination): ◯: no change; Δ: almost no change; x: change; settings: photostabilizer 0.05 wt %, daylight exposure (80 MJ); for Remaining ratio (%): liquid chromatography
Experimental: (§2) For observation of the change of the appearance of each test sample (determination based on visual observation) and the measurement of the remaining ratio by liquid chromatography before and after daylight exposure (80 MJ), the test sample was prepared.

[4] = Dye stabilization effect in blend with sequestering agents (Test Examples 212 to 275); settings: daylight exposure (80 MJ)
Experimental: Each test sample was prepared for observation of the change of the appearance of each test sample (determined visually) and measurement of the color difference (ΔE) before and after daylight exposure (80 MJ).
as §1

[5] = Drug stabilization effect blended with sequestering agent (Test Examples 372 to 391); parameters: key to Appearance (visual determination): ◯: no change; Δ: almost no change; x: change; settings: photostabilizer blend amount 0.03, daylight exposure (80 MJ)
Experimental: Then, the photostabilization effect of the pyridazine derivative in combination with sequestering agents on each drug and the change of the appearance of each composition were examined, by using the following formulation for assessment.
as §2

[6] = dye Blue 1 (Brilliant Blue FCF) 0.0001 wt %
[7] = dye Green 3 (Fast Green FCF) 0.001 wt %
[8] = dye Red 227 (Acid Fuchsine D) 0.0001 wt %
[9] = dye Yellow 5 (Sunset Yellow FCF) 0.001 wt %
[10] = dyes Red 213 (Rhodamine B) 0.00001 + Blue 1 (Brilliant Blue FCF) 0.00001 wt %
[11] = dyes Red 227 (Acid Fuchsine D) 0.0001 + Yellow 5 (Sunset Yellow FCF) 0.0001 wt %
[12] = drug dl-α-tocopherol 2-L-ascorbic acid phosphate diester potassium salt 0.01 wt %
[13] = dyes Red 401 (Violanin R) 0.0001 + Blue 1 (Brilliant Blue FCF) 0.00001 wt %
[14] = dyes Yellow 203 (Quinoline Yellow WS) 0.0001 + Yellow 5 (Sunset Yellow FCF) 0.0001 wt %
[15] = drug dibutylhydroxytoluene 0.01 wt %

Compound: Oc1cc(N2CCCCC2)cnn1 [3-Hydroxy-5-piperidinopyridazine, 3-hydroxy-5-piperidinopyridazine]
- Appearance (visual determination) [1, 6]: ◯
- Δ E [1, 6]: 1.28
- Appearance (visual determination) [1, 7]: ◯
- Δ E [1, 7]: 0.45
- Appearance (visual determination) [1, 8]: ◯
- Δ E [1, 8]: 0.52
- Appearance (visual determination) [1, 9]: ◯
- Δ E [1, 9]: 0.53
- Appearance (visual determination) [1, 10]: ◯
- Δ E [1, 10]: 1.01
- Appearance (visual determination) [1, 11]: ◯
- Δ E [1, 11]: 0.68
- odor determination ([2]; base perfume Rose, photostabilizer 0.05 wt %): ◯
- odor determination ([2]; base perfume Woody, photostabilizer 0.1 wt %): ◯
- odor determination ([2]; natural perfume Lavender oil, photostabilizer 0.1 wt %): ◯
- odor determination ([2]; natural perfume Rose oil, photostabilizer 0.05 wt %): ◯
- odor determination ([2]; synthetic perfume Citral, photostabilizer 0.1 wt %): ◯
- odor determination ([2]; synthetic perfume Linalyl acetate, photostabilizer 0.1 wt %): ◯
- Appearance (visual determination) [3, 12]: ◯
- Remaining ratio (%) [3, 12]: 98.7%
- Appearance (visual determination) ([3]; drug salicylic acid 0.1 wt %): ◯
- Remaining ratio (%) ([3]; drug salicylic acid 0.1 wt %): 98.5%
- Δ E ([4]; dye Blue 1 (Brilliant Blue FCF) 0.001, photostabilizer 0.02, no sequestering agent): 1.74
- Δ E ([4]; dye Blue 1 (Brilliant Blue FCF) 0.001, photostabilizer 0.02, with ethylenediaminehydroxyethyl trisodium triacetate 0.05): 0.54
- Δ E ([4]; dye Blue 1 (Brilliant Blue FCF) 0.001, photostabilizer 0.02, with ethylenediaminetetraacetate trisodium 0.05): 0.78
- Δ E ([4]; dye Blue 1 (Brilliant Blue FCF) 0.001, photostabilizer 0.02, with sodium metaphosphate 0.05): 0.88
- Δ E ([4]; dyes Red 106 (Acid Red) 0.00001 + Yellow 203 (Quinoline Yellow WS) 0.0001, no sequestering agent, photostabilizer blend amount 0.01): 1.08
- Δ E ([4]; dyes Red 106 (Acid Red) 0.00001 + Yellow 203 (Quinoline Yellow WS) 0.0001, with ethylenediaminehydroxyethyl trisodium triacetate 0.02, photostabilizer blend amount 0.01): 0.72
- Appearance (visual determination) ([5]; drug dl-α-tocopherol 2-L-ascorbic acid phosphate diester potassium salt 0.01, no sequestering agent): Δ
- Appearance (visual determination) ([5]; drug dl-α-tocopherol 2-L-ascorbic acid phosphate diester potassium salt 0.01, with ethylenediaminehydroxyethyl Triacetate trisodium 0.03): ◯

Compound: Oc1ccc(N2CCOCC2)nn1 [3-Hydroxy-6-morpholinopyridazine, 6-Morpholino-3-hydroxypyridazine]
- Appearance (visual determination) [1, 6]: ◯
- Δ E [1, 6]: 1.32
- Appearance (visual determination) [1, 7]: ◯
- Δ E [1, 7]: 0.43
- Appearance (visual determination) [1, 8]: ◯
- Δ E [1, 8]: 0.54
- Appearance (visual determination) [1, 9]: ◯
- Δ E [1, 9]: 0.53
- Appearance (visual determination) [1, 13]: ◯
- Δ E [1, 13]: 0.52
- Appearance (visual determination) [1, 14]: ◯
- Δ E [1, 14]: 0.44
- odor determination ([2]; natural perfume Nelori oil, photostabilizer 0.1 wt %): ◯
- odor determination ([2]; natural perfume Ylang ylang oil, photostabilizer 0.2 wt %): ◯
- odor determination ([2]; synthetic perfume Limonene oil, photostabilizer 0.05 wt %): ◯
- odor determination ([2]; synthetic perfume Linalool, photostabilizer 0.05 wt %): ◯
- Appearance (visual determination) [3, 15]: ◯
- Remaining ratio (%) [3, 15]: 98.0%
- Δ E ([4]; dye Green 3 (Fast Green FCF) 0.001, photostabilizer 0.02, no sequestering agent): 0.75
- Δ E ([4]; dye Green 3 (Fast Green FCF) 0.001, photostabilizer 0.02, with ethylenediaminetetraacetate trisodium 0.1): 0.32
- Δ E ([4]; dye Green 3 (Fast Green FCF) 0.001, photostabilizer 0.02, with sodium metaphosphate 0.1): 0.36
- Δ E ([4]; dye Green 3 (Fast Green FCF) 0.001, photostabilizer 0.02, with sodium polyphosphate 0.1): 0.52
- Δ E ([4]; dyes Red 106 (Acid Red) 0.00001 + Yellow 5 (Sunset Yellow FCF) 0.0001, no sequestering agent, photostabilizer blend amount 0.01): 1.38
- Δ E ([4]; dyes Red 106 (Acid Red) 0.00001 + Yellow 5 (Sunset Yellow FCF) 0.0001, with ethylenediaminetetraacetate trisodium 0.02, photostabilizer blend amount 0.01): 0.92
- Appearance (visual determination) ([5]; drug L-ascorbic acid 2-glucoside 2.0, no sequestering agent): ◯
- Appearance (visual determination) ([5]; drug L-ascorbic acid 2-glucoside 2.0, with sodium metaphosphate 0.03): ◯
